Among the data in ChEMBL document CHEMBL4000216, “Lignan derivatives from Selaginella tamariscina and their nitric oxide inhibitory effects in LPS-stimulated RAW 264.7 cells” (Bioorg Med Chem Lett, 2017) are inhibition, Activity and IC50 values, retold here.

Activity calls are given as the source filed them. The calls are words filed in the database; no cut-off is given here.

Series [1] concerns RAW264.7. The experiment in a line: Inhibition of LPS-induced NO production in mouse RAW264.7 cells at 3 to 60 uM preincubated for 1 hr followed by LPS stimulation for 24 hrs by Griess assay. Type of series: functional, cell-based. (Griess reagent forms a coloured azo dye with nitrite.)
In series [2] the test system is RAW264.7. The experiment in a line: Cytotoxicity against mouse RAW264.7 cells assessed as reduction in cell viability at 3 to 60 uM after 24 hrs by MTT assay. Type of series: cell-based. The following applies: raw264.7, 24 h.
Series [3] concerns RAW264.7. The experiment in a line: Inhibition of LPS-induced NO production in mouse RAW264.7 cells preincubated for 1 hr followed by LPS stimulation for 24 hrs by Griess assay. It is filed as functional, cell-based.

Turning to `COc1cc([C@@H]2Oc3c(OC)cc(C(C)=O)cc3[C@H]2CO)cc(OC)c1O[C@@H]1O[C@H](CO[C@@H]2O[C@H](CO)[C@@H](O)[C@H](O)[C@H]2O)[C@@H](O)[C@H](O)[C@H]1O`, the inhibition result in series [1] is “inactive”. The Activity result in series [2] is “Non-Toxic”.

With `COc1cc([C@@H]2Oc3c(OC)cc(C(C)=O)cc3[C@H]2CO)cc(OC)c1O[C@@H]1O[C@H](CO)[C@@H](O)[C@H](O)[C@H]1O`, the IC50 (as a rule, the concentration at which inhibition is half-maximal) in series [3] worked out at 32.4 µM. Also, the Activity result in series [2] is “Non-Toxic”.

For `COc1cc([C@@H]2Oc3c(OC)cc(C(C)=O)cc3[C@H]2CO)cc(OC)c1O`, the IC50 in series [3] is 32.3 µM. Besides, in series [2], the Activity entry was “Non-Toxic”.

Compound `O=C1/C(=C/c2ccc(O)c(O)c2)COc2cc(O)ccc21` [SAPPANONE A] had an IC50 in series [3] of 9.3 µM.

On to `COc1cc([C@H]2OC[C@H]3[C@@H]2CO[C@@H]3c2cc(OC)c(O[C@@H]3O[C@H](CO)[C@@H](O)[C@H](O)[C@H]3O)c(OC)c2)cc(OC)c1O[C@@H]1O[C@H](CO)[C@@H](O)[C@H](O)[C@H]1O` [LIRIODENDRIN], for which, in series [1], the inhibition entry is “inactive”. Besides, the Activity result in series [2] is on record as “Non-Toxic”.

Turning to `COc1cc(C[C@@H](CO[C@@H]2O[C@H](CO)[C@@H](O)[C@H](O)[C@H]2O)c2cc(C(C)=O)cc(OC)c2O)cc(OC)c1O`, the IC50 in series [3] came out at 40.9 µM. Further, in series [2], the Activity result is recorded as “Non-Toxic”.

As to `COc1cc([C@@H]2Oc3c(OC)cc(C(C)=O)cc3[C@H]2CO[C@@H]2O[C@H](CO)[C@@H](O)[C@H](O)[C@H]2O)cc(OC)c1O`, in series [3], the IC50 came out at 55.8 µM. Besides, in series [2], the Activity entry is listed as “Non-Toxic”.
